Laboratory results as given in PubChem BioAssay (NCI).
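Grown in 96-well plates, cells were treated for 48 hours with each compound at five concentrations. Insufficient inhibition: endpoint recorded as highest concentration tested. TGI denotes the concentration required for complete inhibition of growth.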

What was measured:
Test in all cases: DTP human tumour cell line panel, 48 h
SNB-19 CNS = system: SNB-19 CNS
HL-60(TB) leukemia = system: HL-60(TB) leukemia
OVCAR-8 ovarian = system: OVCAR-8 ovarian
SR leukemia = system: SR leukemia
NCI-H522 lung = system: NCI-H522 lung
MDA-MB-231 breast = system: MDA-MB-231 breast
SW-620 colon = system: SW-620 colon
UACC-257 melanoma = system: UACC-257 melanoma
NCI-H460 lung = system: NCI-H460 lung
PC-3 prostate = system: PC-3 prostate
OVCAR-5 ovarian = system: OVCAR-5 ovarian
A498 renal = system: A498 renal
A549 NSCLC = system: A549 NSCLC
DU-145 prostate = system: DU-145 prostate
CAKI-1 renal = system: CAKI-1 renal
HS 578T breast = system: HS 578T breast
MOLT-4 leukemia = system: MOLT-4 leukemia
EKVX NSCLC = system: EKVX NSCLC
T-47D breast = system: T-47D breast
SK-MEL-5 melanoma = system: SK-MEL-5 melanoma
HT29 colon = system: HT29 colon
SK-MEL-2 melanoma = system: SK-MEL-2 melanoma
SK-MEL-28 melanoma = system: SK-MEL-28 melanoma
OVCAR-4 ovarian = system: OVCAR-4 ovarian
MDA-N = system: MDA-N
NCI-H23 lung = system: NCI-H23 lung
HCT-15 colon = system: HCT-15 colon
UACC-62 melanoma = system: UACC-62 melanoma
HCT-116 colon = system: HCT-116 colon
IGROV1 ovarian = system: IGROV1 ovarian
U251 CNS = system: U251 CNS
SF-268 CNS = system: SF-268 CNS
NCI-H226 lung = system: NCI-H226 lung
MALME-3M melanoma = system: MALME-3M melanoma
SNB-75 CNS = system: SNB-75 CNS
HCC-2998 colon = system: HCC-2998 colon
786-0 renal = system: 786-0 renal
M14 melanoma = system: M14 melanoma
RPMI-8226 leukemia = system: RPMI-8226 leukemia
SK-OV-3 ovarian = system: SK-OV-3 ovarian
SN12C renal = system: SN12C renal
UO-31 renal = system: UO-31 renal
KM12 colon = system: KM12 colon
OVCAR-3 ovarian = system: OVCAR-3 ovarian
HOP-92 NSCLC = system: HOP-92 NSCLC
COLO 205 colon = system: COLO 205 colon
MCF7 breast = system: MCF7 breast
SF-539 CNS = system: SF-539 CNS
TK-10 renal = system: TK-10 renal
MDA-MB-435 = system: MDA-MB-435
NCI/ADR-RES ovarian = system: NCI/ADR-RES ovarian
K-562 leukemia = system: K-562 leukemia
CCRF-CEM leukemia = system: CCRF-CEM leukemia
SF-295 CNS = system: SF-295 CNS
RXF 393 renal = system: RXF 393 renal
BT-549 breast = system: BT-549 breast
ACHN renal = system: ACHN renal
HOP-62 NSCLC = system: HOP-62 NSCLC
LOX IMVI melanoma = system: LOX IMVI melanoma

COC(=O)CC(=O)Nc1sccc1S(=O)(=O)c1ccccc1
TGI (SNB-19 CNS): > 100 µM
TGI (HL-60(TB) leukemia): > 100 µM
TGI (OVCAR-8 ovarian): > 100 µM
TGI (SR leukemia): > 100 µM
TGI (NCI-H522 lung): > 100 µM
TGI (MDA-MB-231 breast): > 100 µM
TGI (SW-620 colon): > 100 µM
TGI (UACC-257 melanoma): > 100 µM
TGI (NCI-H460 lung): > 100 µM
TGI (PC-3 prostate): > 100 µM
TGI (OVCAR-5 ovarian): > 100 µM
TGI (A498 renal): > 100 µM
TGI (A549 NSCLC): > 100 µM
TGI (DU-145 prostate): > 100 µM
TGI (CAKI-1 renal): > 100 µM
TGI (HS 578T breast): > 100 µM
TGI (MOLT-4 leukemia): > 100 µM
TGI (EKVX NSCLC): > 100 µM
TGI (T-47D breast): > 100 µM
TGI (SK-MEL-5 melanoma): > 100 µM
TGI (HT29 colon): > 100 µM
TGI (SK-MEL-2 melanoma): > 100 µM
TGI (SK-MEL-28 melanoma): > 100 µM
TGI (OVCAR-4 ovarian): > 100 µM
TGI (MDA-N): > 100 µM
TGI (NCI-H23 lung): > 100 µM
TGI (HCT-15 colon): > 100 µM
TGI (UACC-62 melanoma): > 100 µM
TGI (HCT-116 colon): > 100 µM
TGI (IGROV1 ovarian): > 100 µM
TGI (U251 CNS): > 100 µM
TGI (SF-268 CNS): > 100 µM
TGI (NCI-H226 lung): 95 µM
TGI (MALME-3M melanoma): > 100 µM
TGI (SNB-75 CNS): > 100 µM
TGI (HCC-2998 colon): 41.6 µM
TGI (786-0 renal): > 100 µM
TGI (M14 melanoma): > 100 µM
TGI (RPMI-8226 leukemia): > 100 µM
TGI (SK-OV-3 ovarian): > 100 µM
TGI (SN12C renal): > 100 µM
TGI (UO-31 renal): > 100 µM
TGI (KM12 colon): > 100 µM
TGI (OVCAR-3 ovarian): 43.5 µM
TGI (HOP-92 NSCLC): > 100 µM
TGI (COLO 205 colon): > 100 µM
TGI (MCF7 breast): > 100 µM
TGI (SF-539 CNS): > 100 µM
TGI (TK-10 renal): > 100 µM
TGI (MDA-MB-435): > 100 µM
TGI (NCI/ADR-RES ovarian): > 100 µM
TGI (K-562 leukemia): > 100 µM
TGI (CCRF-CEM leukemia): > 100 µM
TGI (SF-295 CNS): > 100 µM
TGI (RXF 393 renal): > 100 µM
TGI (BT-549 breast): > 100 µM
TGI (ACHN renal): > 100 µM

COC(=O)C(F)C(Br)C(=O)OC (stereo unspecified)
TGI (SNB-19 CNS): > 79.3 µM
TGI (HL-60(TB) leukemia): 3.93 µM
TGI (OVCAR-8 ovarian): 12.6 µM
TGI (SR leukemia): 3.27 µM
TGI (NCI-H522 lung): 3.94 µM
TGI (MDA-MB-231 breast): 28.3 µM
TGI (SW-620 colon): 4.56 µM
TGI (UACC-257 melanoma): 28.4 µM
TGI (NCI-H460 lung): 39.3 µM
TGI (PC-3 prostate): 10.1 µM
TGI (OVCAR-5 ovarian): 31.8 µM
TGI (A498 renal): 43.9 µM
TGI (A549 NSCLC): 39.1 µM
TGI (DU-145 prostate): 27.5 µM
TGI (CAKI-1 renal): 5.17 µM
TGI (HS 578T breast): 68.6 µM
TGI (MOLT-4 leukemia): 3.01 µM
TGI (EKVX NSCLC): 3.92 µM
TGI (T-47D breast): 6.63 µM
TGI (SK-MEL-5 melanoma): 34 µM
TGI (HT29 colon): 5.43 µM
TGI (SK-MEL-2 melanoma): 32.6 µM
TGI (SK-MEL-28 melanoma): 34.3 µM
TGI (OVCAR-4 ovarian): 19.8 µM
TGI (MDA-N): 22.7 µM
TGI (NCI-H23 lung): 13.5 µM
TGI (HOP-62 NSCLC): 35.7 µM
TGI (HCT-15 colon): 3.84 µM
TGI (UACC-62 melanoma): 30.4 µM
TGI (HCT-116 colon): 6.09 µM
TGI (IGROV1 ovarian): > 20.5 µM
TGI (U251 CNS): 9.84 µM
TGI (SF-268 CNS): 24.4 µM
TGI (NCI-H226 lung): 43.4 µM
TGI (MALME-3M melanoma): 16.5 µM
TGI (SNB-75 CNS): 31 µM
TGI (HCC-2998 colon): 21 µM
TGI (786-0 renal): 6.03 µM
TGI (LOX IMVI melanoma): 32 µM
TGI (M14 melanoma): 13.4 µM
TGI (RPMI-8226 leukemia): 3.88 µM
TGI (SK-OV-3 ovarian): 34.6 µM
TGI (SN12C renal): 30.9 µM
TGI (UO-31 renal): 3.52 µM
TGI (KM12 colon): 50.6 µM
TGI (OVCAR-3 ovarian): 4.33 µM
TGI (HOP-92 NSCLC): 4.96 µM
TGI (COLO 205 colon): 3.46 µM
TGI (MCF7 breast): 15.6 µM
TGI (SF-539 CNS): 20.4 µM
TGI (TK-10 renal): 5.37 µM
TGI (MDA-MB-435): 27.3 µM
TGI (NCI/ADR-RES ovarian): 8.93 µM
TGI (K-562 leukemia): 3.72 µM
TGI (CCRF-CEM leukemia): 2.29 µM
TGI (SF-295 CNS): 70.1 µM
TGI (RXF 393 renal): 6.95 µM
TGI (BT-549 breast): 31 µM
TGI (ACHN renal): 3.39 µM
